# Measured values as given in US20220079894A1, “STABLE PHARMACEUTICAL COMPOSITIONS” (priority 2020, published 2022).
# Counter-ions that a name gives are not always drawn.
# Test: NDMA content of Metformin Extended Release Tablets by LC-MS
# Type: physicochemical
# Settings: active substance of lot XP9004
# Experimental: Of particular concern is the level of NDMA in a class of anti-diabetic drugs including metformin hydrochloride tablets. Since these drugs are administered over a long period of time to patients, the amount of NDMA impurity in such products is of particular concern. It has been established that the 96 ng is the Acceptable Daily Intake Limit (ADI) for N-Nitrosodimethylamine (NDMA) in Metformin Hydrochloride tablets. The levels of NDMA in metformin hydrochloride tablets can be determined by analytical methods like Liquid Chromatography-Mass Spectrometry. Other drugs that can have similar issues are anti-diabetic drugs, a drug to treat Gastroesophageal Reflux Diseases (GERD) or an Angiotensis II receptor antagonist drug (ARBs).
# This meant that the potential daily exposure of NDMA in the product was 160 ng/day
structure (smiles),measurement,value
"CN(C)C(=N)N=C(N)N [active substance, Metformin Hydrochloride]",NDMA in the active substance used in the lot,no detectable NDMA
